Laboratory results taken from patent publication US11674120B2, “Methods, kits, and compositions for enhancing cellular therapy” (University of Florida Research Foundation, Incorporated, priority 2016, dated 2023).

System: lymph nodes and spleens
Test: In vivo migration of PKH+ DCs to lymph nodes and spleen (immunofluorescence)
Set-up: species or system C57BL/6 mice
Conditions: intradermal injection, 48 hours
Method: Dendritic cells were cultured and loaded with sarcosine as described in Example 1. DCs were also loaded with PKH cell membrane dye. […] After 48 hours, the lymph nodes and spleens were collected from the mice and immunofluorescence was performed to visualize PKH+ cells (which are the injected DCs) and B220+ cells (which are B cells). […] There was vastly more migration to the lymph nodes/spleen.

SMILES: CNCC(=O)O [sarcosine, N-methylglycine]
- Increase of migration to the lymph nodes and the spleen over controls, on visual inspection: more than two times, three times, four times more, five times and perhaps even more than ten-fold more than controls
